Data as given in patent publication US20180237362A1, “NOVEL POLYGODIAL ANALOGS FOR THE TREATMENT OF CANCER AND OTHER PROLIFERATIVE DISEASES” (THE BOARD OF REGENTS OF THE UNIVERSITY OF TAXAS SYSTEM, priority 2015, published 2018).

Columns and labels:
[1] = biological target: T1, vanilloid site of TRPV1 receptor from rats spinal cord membranes (Rattus norvegicus, UniProt O35433); test: [3H]-resiniferatoxin binding assay; details: 2 nM [3H]-RTX
T1 construct: from tissue; host or cells: rat spinal cord membranes
Procedure: To evaluate the possible affinity of different analogues to the vanilloid site of TRPV1, a [^3H]-resiniferatoxin ([^3H]-RTX) binding assay was performed as previously described (Galli et al. 2004 and Lee et al., 2006). Briefly, rats spinal cord were homogenized in buffer A (pH 7.4, 5 mM KCl, 5.8 mM NaCl, 2 mM MgCl2, 0.75 mM CaCl2, 137 mM sucrose, and 10 mM HEPES) and centrifuged for 10 minutes at 1000 g at 4° C. and the supernatant was further centrifuged for 30 min at 35,000 g at 4° C. The resulting pellets were than resuspended in buffer A and frozen until assayed. The binding reaction was performed in a final volume of 500 μL, containing buffer A (plus 0.25 mg/mL bovine serum albumin, BSA), membranes (0.5 mg/mL), and 2 nM [^3H]-RTX in the presence or absence of analogues of 1 (10 μM). For the measurement of the nonspecific binding, 100 μM nonradioactive RTX were included used. The reaction was started by incubating tubes at 37° C. during 60 minutes, and stopped by transferring the tubes to ice bath and adding 100 μg of bovine α1-acid glycoprotein (to reduce nonspecific binding). […] The pellet was used to quantify the scintillation counting. The specific binding was calculated as the difference of the total and nonspecific binding and the results were measured as % of specific binding.

U373 cells = test: Trypan blue viability assay, U373; format: cell-based, human; details: 72 h treatment
Procedure: FIG. 9. Viability of U373 cells by trypan blue staining. U373 cells were treated for 72 h with 1 or 13 and stained with trypan blue. The experiment was conducted once in triplicate. After having taken pictures, cells were fixed with ice-cold methanol and again stained with trypan blue as internal positive control.
To confirm the results obtained in the videomicroscopy experiments, trypan blue assay was employed to detect necrotic and late apoptotic cells that had lost their plasma membrane integrity (FIG. 9). […] These observations support the results of the MTT assay and provide an explanation for the effectiveness of the C12-Wittig derivatives against cells, which display resistance to apoptosis induction. In contrast, at the concentrations necessary to induce cancer cell death 1 behaves as a toxic fixative compound of little promise as a potential drug.

[2] = test system: cervical cancer cell line HeLa; test: Cell viability (Cell Titer 96 Aqueous), HeLa; format: cell-based, human; details: 48 hours; potency order P10, polygodial, P3
Text: Human cancer cell lines were obtained from the American Type Culture Collection (ATCC, Manassas, Va., USA), the European Collection of Cell Culture (ECACC, Salisbury, UK) and the Deutsche Sammlung von Mikroorganismen und Zellkulturen (DSMZ, Braunschweig, Germany). The OSCC cell lines, Cal27 and HSC3 are derived from human primary tongue tumor. Cal27 cells were obtained from the American Type Culture Collection (Rockville, Md.). HSC3 cells were provided by Dr. Brian Schmidt. HeLa cells (cervical cancer cell line) were obtained from ATCC. Cells were cultured in DMEM, containing 10% FBS and 1% penicillin-streptomycin media, at 37° C. in 5% CO2. All cells were authenticated by Genetic DNA Laboratories.
The cytotoxicity of polygodial, P10, P3, and P27 in Cal27, HSC3, and HeLa cells was examined in vitro using a colorimetric assay, Cell Titer 96® Aqueous Non-Radioactive Cell Proliferation Assay. […] GraphPad Prism4 was used to perform statistical analysis.

[3] = test system: U87 glioblastoma cell cultures; test: MTT growth curves, U87; format: cell-based, human; details: apoptosis-resistant U87 GBM; concentrations up to 100 μM
Procedure: Human mammary carcinoma MCF-7 (ATCC HTB22) cells were cultured in RPMI supplemented with 10% FBS. The U87 cells (ATCC HTB-14) were cultured in DMEM culture medium, while the A549 cells (DSMZ ACC107) were cultured in RPMI culture medium supplemented with 10% heat-inactivated FBS. The GBM Hs683 (ATCC HTB-138) cells were cultivated in DMEM supplemented with 10% FBS. The human uterine sarcoma MES-SA (ATCC CRL1966) and MES-SA/D×5 cells were cultured in RPMI-1640 medium supplemented with 10% FBS with MES SA/D×5 maintained in the presence of 500 nM Doxorubicin (Sigma). SKMEL-28 cells (ATCC HTB72) and U373 GBM cells (ECACC 08061901) were cultured in RPMI culture medium supplemented with 10% heat-inactivated FBS. Cell culture media were supplemented with 4 mM glutamine (Lonza code BE17-605E), 100 μg/mL gentamicin (Lonza code 17-5182), and penicillin-streptomycin (200 units/ml and 200 μg/ml) (Lonza code 17-602E). The MDA-MB-231 (ATCC HTB-26) epithelial mammary adenocarcinoma cells were cultured in Eagle's minimum essential medium (EMEM; Invitrogen) containing 5% fetal calf serum (FCS, Cambrex), 2 mM L-glutamine (Invitrogen), 0.06% HEPES (Invitrogen) and penicillin (50 IU/ml)/streptomycin (50 µg/ml; Invitrogen) at 37° C. in a humidified atmosphere of 5% CO2 in air. Transformed mouse NPCs were cultured in suspension under neurosphere conditions at 37° C. in a humidified atmosphere of […] and 5% CO2 in DMEM F12 (Invitrogen 11320-074) supplemented with 1×B27 supplement (Invitrogen 17504-044), 5% penicillin-streptomycin (Biochrom 10378-017), 10 ng/ml EGF (R&D systems 236-EG), 10 ng/ml FGF (PeproTech 100-18B).
Antiproliferative properties of the synthesized compounds were evaluated by the MTT assay. All compounds were dissolved in DMSO at a concentration of either 100 μM or 50 μM prior to cell treatment. The cells were trypsinized and seeded at various cell concentrations depending on the cell type. […]

HeLa cells = test: Morphological changes, HeLa; format: cell-based, human; details: P3 50 μM, 1 hour
Procedure: (§1) FIGS. 12A-B Morphological changes (20×) in HeLa cells (FIG. 12Aa-d) and HSC3 cells (FIG. 12Ba-d) with no treatment (a) or treated with Polygodial 80 μM (b), P10 4 μM (c), and P3 50 μM (d) for 1 hour. Differences in morphological changes between treatments indicate potentially unique mechanisms-of-action between polygodial and P10 (isomer), and P3 (novel analog).

HSC3 cells = test: Morphological changes, HSC3; format: cell-based, human; details: P3 50 μM, 1 hour
Procedure: as §1

T1 sequence (O35433 whole entry): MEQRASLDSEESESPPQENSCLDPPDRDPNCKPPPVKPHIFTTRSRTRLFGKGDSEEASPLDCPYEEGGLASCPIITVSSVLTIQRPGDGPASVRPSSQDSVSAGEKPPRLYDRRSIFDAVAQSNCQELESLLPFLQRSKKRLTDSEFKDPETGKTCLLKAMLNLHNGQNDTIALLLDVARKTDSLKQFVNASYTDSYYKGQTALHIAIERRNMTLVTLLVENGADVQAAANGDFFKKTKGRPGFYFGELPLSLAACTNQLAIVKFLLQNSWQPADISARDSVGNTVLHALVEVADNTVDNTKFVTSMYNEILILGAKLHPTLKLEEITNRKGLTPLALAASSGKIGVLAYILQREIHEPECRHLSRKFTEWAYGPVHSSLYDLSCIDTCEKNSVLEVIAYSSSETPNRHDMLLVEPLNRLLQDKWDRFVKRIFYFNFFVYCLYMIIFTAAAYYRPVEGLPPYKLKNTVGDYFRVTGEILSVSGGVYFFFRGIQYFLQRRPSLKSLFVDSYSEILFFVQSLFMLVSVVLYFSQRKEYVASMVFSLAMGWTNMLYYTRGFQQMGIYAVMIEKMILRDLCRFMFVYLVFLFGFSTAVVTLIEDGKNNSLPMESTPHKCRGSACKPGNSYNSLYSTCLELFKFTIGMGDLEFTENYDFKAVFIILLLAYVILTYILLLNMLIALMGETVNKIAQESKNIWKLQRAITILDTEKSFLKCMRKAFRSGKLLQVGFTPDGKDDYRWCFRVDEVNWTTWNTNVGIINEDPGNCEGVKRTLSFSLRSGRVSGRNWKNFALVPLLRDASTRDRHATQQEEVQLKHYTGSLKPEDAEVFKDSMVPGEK

In the case of `CC1(C)CCC[C@]2(C)[C@@H](C=O)C(C=O)=CC[C@@H]12` [Compound 1, Polygodial], the inhibition at 10 µM ([1]; read-out: inhibition of specific binding of [3H]-resiniferatoxin (RTX)) is reported as 76%, the “viability by trypan blue staining” value (U373 cells) is reported as “all blue-stained before methanol fixation” and the “cancer cell viability, HeLa” value [2] is reported as “reduced cancer cell viability in vitro”.
For `COC(=O)/C=C/C1=CC[C@H]2C(C)(C)CCC[C@]2(C)[C@H]1C=O` [Compound 5], the “effect on proliferation/viability of all cells, U87” value [3] was “growth inhibitory properties against most of the cells”, the “inhibition of specific binding of [3H]-resiniferatoxin (RTX)” value ([1]; 10 μM) was “failed to show any activity” and the “cancer cell viability, HeLa” value [2] was “reduced cancer cell viability in vitro”. The “morphological changes, HeLa” value (HeLa cells) was “apoptotic figures” and the “morphological changes, HSC3” value (HSC3 cells) was “apoptotic figures”.
